Measurements taken from US20140088124A1, “IMIDAZOLE DERIVATIVES” (priority 2011, published 2014).

The compounds below were run against T1, human DGAT1 (Homo sapiens, UniProt O75907) (assay: DGAT1 CPM Assay). Settings: human DGAT1, CPM fluorescence, 1 hour incubation at room temperature.
T1 sequence (O75907 1-488): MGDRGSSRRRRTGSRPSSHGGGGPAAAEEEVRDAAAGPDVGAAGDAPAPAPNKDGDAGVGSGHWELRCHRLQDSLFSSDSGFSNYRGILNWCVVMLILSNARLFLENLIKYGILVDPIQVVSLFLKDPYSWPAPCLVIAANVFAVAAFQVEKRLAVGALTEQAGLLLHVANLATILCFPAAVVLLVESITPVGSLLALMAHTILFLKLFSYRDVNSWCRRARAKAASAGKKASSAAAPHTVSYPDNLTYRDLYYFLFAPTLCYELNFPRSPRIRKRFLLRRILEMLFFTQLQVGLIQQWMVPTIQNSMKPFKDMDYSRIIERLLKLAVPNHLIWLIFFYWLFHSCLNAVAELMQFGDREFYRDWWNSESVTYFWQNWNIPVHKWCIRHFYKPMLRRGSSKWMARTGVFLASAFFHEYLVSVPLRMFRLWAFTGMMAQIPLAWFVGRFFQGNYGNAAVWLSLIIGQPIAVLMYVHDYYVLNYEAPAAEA
Format: biochemical
Procedure: 20 uL of 90 uM CPM reagent in 90% ethanol was added after 1 hour incubation at room temperature.

Structure (SMILES) | IC50 [nM]
O=C(NS(=O)(=O)c1ccc(C(F)(F)F)cc1)[C@H]1CC[C@H](OC2CCN(c3ccc(-c4nc5cc(F)ccc5[nH]4)cn3)CC2)CC1 [Example 85] | 9
CS(=O)(=O)NC(=O)[C@H]1CC[C@H](OC2CCN(c3ccc(-c4nc5cc(F)ccc5[nH]4)cn3)CC2)CC1 [Example 86] | 19
O=C(NS(=O)(=O)c1ccccc1)[C@H]1CC[C@H](OC2CCN(c3ccc(-c4nc5cc(F)ccc5[nH]4)cn3)CC2)CC1 [Example 87] | 14
O=C(NS(=O)(=O)c1ccc(F)cc1)[C@H]1CC[C@H](OC2CCN(c3ccc(-c4nc5cc(F)ccc5[nH]4)cn3)CC2)CC1 [Example 88] | 9
O=C(NS(=O)(=O)c1ccc(Cl)cc1)[C@H]1CC[C@H](OC2CCN(c3ccc(-c4nc5cc(F)ccc5[nH]4)cn3)CC2)CC1 [Example 89] | 4
O=C(NS(=O)(=O)C(F)(F)F)[C@H]1CC[C@H](OC2CCN(c3ccc(-c4nc5cc(F)ccc5[nH]4)cn3)CC2)CC1 [Example 91] | 7
O=C(O)C1(C(=O)O)CC(OC2CCN(c3ccc(-c4nc5ccccc5[nH]4)cn3)CC2)C1 [Example 92] | 147
O=C(O)C1(C(=O)O)CC(OC2CCN(c3ccc(-c4nc5cc(F)ccc5[nH]4)cn3)CC2)C1 [Example 93] | 71
O=C(O)C1(C(=O)O)CC(OC2CCN(c3ccc(-c4nc5cc(F)c(F)cc5[nH]4)cn3)CC2)C1 [Example 94] | 122
O=C(O)C1(C(=O)O)CC(OC2CCN(c3ccc(-c4nc5cc(C(F)(F)F)ccc5[nH]4)cn3)CC2)C1 [Example 95] | 85
N#Cc1ccc2[nH]c(-c3ccc(N4CCC(OC5CC(C(=O)O)(C(=O)O)C5)CC4)nc3)nc2c1 [Example 96] | 277
Cc1ccc2[nH]c(-c3ccc(N4CCC(OC5CC(C(=O)O)(C(=O)O)C5)CC4)nc3)nc2n1 [Example 97] | 1000
C[C@]1(C(=O)O)CC[C@@H](OC2CCN(c3ccc(-c4nc5ccc(C(F)(F)F)cc5[nH]4)cn3)CC2)CC1 [Example 98, cis-1-methyl-4-[(1-{5-[6-(trifluoromethyl)-1H-benzimidazol-2-yl]pyridin-2-yl}piperidin-4-yl)oxy]cyclohexanecarboxylic acid] | 4
C[C@]1(C(=O)O)CC[C@H](OC2CCN(c3ccc(-c4nc5ccc(F)cc5[nH]4)cn3)CC2)CC1 [Example 99] | 9
C[C@]1(C(=O)O)CC[C@H](OC2CCN(c3ccc(-c4nc5ccc(C(F)(F)F)cc5[nH]4)cn3)CC2)CC1 [Example 100] | 2
C[C@]1(C(=O)O)CC[C@H](OC2CCN(c3ccc(-c4nc5ccccc5[nH]4)cn3)CC2)CC1 [Example 101] | 27
C[C@]1(C(=O)O)CC[C@H](OC2CCN(c3ccc(-c4nc5ccc(Cl)cc5[nH]4)cn3)CC2)CC1 [Example 102] | 4
C[C@]1(C(=O)O)C[C@H](OC2CCN(c3ccc(-c4nc5cc(C(F)(F)F)ccc5[nH]4)cn3)CC2)C1 [Example 103] | 4

Continued, values first:

IC50 [nM] | Structure (SMILES)
6 | C[C@]1(C(=O)O)C[C@@H](OC2CCN(c3ccc(-c4nc5cc(C(F)(F)F)ccc5[nH]4)cn3)CC2)C1 [Example 104]
44 | C[C@]1(C(=O)O)CC[C@@H](OC2CCN(c3ccc(-c4nc5ccccc5[nH]4)cn3)CC2)CC1 [Example 105, cis-4-({1-[5-(1H-benzimidazol-2-yl)pyridin-2-yl}piperidin-4-yl]oxy)-1-methylcyclohexanecarboxylic acid]
15 | C[C@]1(C(=O)O)CC[C@@H](OC2CCN(c3ccc(-c4nc5cc(F)c(F)cc5[nH]4)cn3)CC2)CC1 [Example 106]
48 | C[C@]1(C(=O)O)CC[C@@H](OC2CCN(c3ccc(-c4nc5ncc(C(F)(F)F)cc5[nH]4)cn3)CC2)CC1 [Example 107]
125 | C[C@]1(C(=O)O)CC[C@@H](OC2CCN(c3ccc(-c4nc5ncc(Cl)cc5[nH]4)cn3)CC2)CC1 [Example 108]
2 | C[C@]1(C(=O)O)CC[C@@H](OC2CCN(c3ccc(-c4nc5cc(Cl)c(Cl)cc5[nH]4)cn3)CC2)CC1 [Example 109]
425 | Cc1ccc2[nH]c(-c3ccc(N4CCC(O[C@H]5CC[C@@](C)(C(=O)O)CC5)CC4)nc3)nc2n1 [Example 110]
21 | C[C@]1(C(=O)O)CC[C@@H](OC2CCN(c3ccc(-c4nc5cc(F)ccc5[nH]4)cn3)CC2)CC1 [Example 111]
520 | COC(=O)c1cccc(OC2CCN(c3ccc(-c4nc5cc(C(F)(F)F)ccc5[nH]4)cn3)CC2)c1 [Example 113, Methyl 3-[(1-{5-[5-(trifluoromethyl)-1H-benzimidazol-2-yl]pyridin-2-yl}piperidin-4-yl)oxy]benzoate]
9 | O=C(O)c1cccc(OC2CCN(c3ccc(-c4nc5cc(C(F)(F)F)ccc5[nH]4)cn3)CC2)c1 [Example 114, 3-[(1-{5-[5-(trifluoromethyl)-1H-benzimidazol-2-yl]pyridin-2-yl}piperidin-4-yl)oxy]benzoic acid]
28 | O=C(O)c1cncc(OC2CCN(c3ccc(-c4nc5cc(C(F)(F)F)ccc5[nH]4)cn3)CC2)c1 [Example 115, 5-[(1-{5-[5-(trifluoromethyl)-1H-benzimidazol-2-yl]pyridin-2-yl}piperidin-4-yl)oxy]pyridine-3-carboxylic acid]
99 | COC(=O)c1cccc(COC2CCN(c3ccc(-c4nc5cc(C(F)(F)F)ccc5[nH]4)cn3)CC2)c1 [Example 116]
4 | O=C(O)c1cccc(COC2CCN(c3ccc(-c4nc5cc(C(F)(F)F)ccc5[nH]4)cn3)CC2)c1 [Example 117]
5 | O=C1CN([C@H]2CC[C@H](OC3CCN(c4ccc(-c5nc6cc(C(F)(F)F)ccc6[nH]5)cn4)CC3)CC2)S(=O)(=O)N1 [Example 118]
4 | O=C1CN([C@H]2CC[C@H](OC3CCN(c4ccc(-c5nc6cc(F)c(F)cc6[nH]5)cn4)CC3)CC2)S(=O)(=O)N1 [Example 119]
29 | COc1ccc2nc(-c3ccc(N4CCC(O[C@H]5CC[C@H](N6CC(=O)NS6(=O)=O)CC5)CC4)nc3)[nH]c2n1 [Example 120]
45 | O=C1CN([C@H]2CC[C@@H](OC3CCN(c4ccc(-c5nc6ccccc6[nH]5)cn4)CC3)CC2)S(=O)(=O)N1 [Example 121]
10 | O=C1CN([C@H]2CC[C@@H](OC3CCN(c4ccc(-c5nc6cc(F)c(F)cc6[nH]5)cn4)CC3)CC2)S(=O)(=O)N1 [Example 122]
2 | O=C(O)c1ccc(OC2CCN(c3ccc(-c4nc5ccc(C(F)(F)F)cc5[nH]4)cn3)CC2)nc1 [Example 123]
64 | O[C@@H]1CO[C@H]2[C@@H]1OC[C@@H]2OC1CCN(c2ccc(-c3nc4cc(F)ccc4[nH]3)cn2)CC1 [Example 125]
100 | O=C(O)c1ncc(OC2CCN(c3ccc(-c4nc5cc(Cl)ccc5[nH]4)cn3)CC2)cn1 [Example 127, 5-(1-(5-(5-chloro-1H-benzo[d]imidazol-2-yl)pyridin-2-yl)piperidin-4-yloxy)pyrimidine-2-carboxylic acid]
324 | O=C(O)c1cncc(OC2CCN(c3ccc(-c4nc5cc(Cl)ccc5[nH]4)cn3)CC2)c1 [Example 128]
1 | O=C(O)Cc1ccc(OC2CCN(c3ccc(-c4nc5cc(Cl)ccc5[nH]4)cn3)CC2)cc1 [Example 129]
15 | O=C(O)c1cc(OC2CCN(c3ccc(-c4nc5cc(Cl)ccc5[nH]4)cn3)CC2)no1 [Example 130]
